One assay concerns PC3 cells. The assay is described as follows: PC3 growth inhibition (Cell-titer glo, 72 hours). The format is cell-based. The note with it: Homo sapiens, PC-3; compound concentration 1.667 μM; PC3 cells, 72 hours, Cell-titer glo; read-out: Percent Inhibition (PC3 growth inhibition). In a few lines: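 PC3 cells in RPMI1640 seeded overnight at 37 °C, 5% CO2, then exposed to compound diluted in AIM serum-free medium for 72 h. Viability by CellTiter-Glo luminescence vs DMSO controls; single-concentration % remaining viability (1 μM or 1.667 μM), or GI50/LD50 from curves.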

Another assay deals with hNAMPT protein (Homo sapiens (Human), UniProt P43490). Put plainly: NAMPT enzyme assay (TR-FRET/HTRF, BodiPY ligand, anti 6His-Tb). Type of assay: binding. The settings on record: for inhibition at 1 µM: NAMPT inhibition at compound concentration 1 μM, read-out: Percent Inhibition; for IC50: NAMPT inhibition, IC50 range class, read-out: IC50. The gist of the method: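 TR-FRET binding assay in which His-tagged human NAMPT with anti-6His-Tb is displaced by compound from a BodiPY ligand, incubated 1 h at rt in the dark. Excitation was at 320 nm, with the 520/486 nm emission ratio read. IC50 was fitted from inhibition relative to DMSO controls.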
hNAMPT protein, sequence (P43490 whole entry): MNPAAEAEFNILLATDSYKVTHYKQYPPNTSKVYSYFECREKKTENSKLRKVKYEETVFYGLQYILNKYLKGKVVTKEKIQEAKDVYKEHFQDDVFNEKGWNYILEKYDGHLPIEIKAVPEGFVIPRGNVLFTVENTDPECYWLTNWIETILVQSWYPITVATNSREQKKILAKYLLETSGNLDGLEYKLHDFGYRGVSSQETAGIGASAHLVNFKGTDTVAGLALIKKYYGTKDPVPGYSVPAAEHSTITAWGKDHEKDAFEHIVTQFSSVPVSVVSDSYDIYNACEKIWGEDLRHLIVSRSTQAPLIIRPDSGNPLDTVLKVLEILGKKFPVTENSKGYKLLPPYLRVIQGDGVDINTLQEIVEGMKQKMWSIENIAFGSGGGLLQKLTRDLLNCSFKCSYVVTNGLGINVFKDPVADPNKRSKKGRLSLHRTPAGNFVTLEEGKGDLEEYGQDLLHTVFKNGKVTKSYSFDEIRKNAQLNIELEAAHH
A general note: In TR-FRET formats the signal depends on donor and acceptor labels being close together.

A word on the inhibition: it is the change of the read-out against control, counted positive when it falls. Broadly, the IC50 is the midpoint of a concentration-inhibition curve.

For the molecule `O=C(NCCCc1ncc[nH]1)c1ccc2nc(-c3ccc(F)cc3)c(-c3cc(Cl)ccc3F)nc2c1` [Compound I-480, 3-(5-Chloro-2-fluoro-phenyl)-2-(4-fluorophenyl)-N-[3-(1H-imidazol-2-yl)propyl]quinoxaline-6-carboxamide], the inhibition at 1.667 µM in the assay with PC3 cells worked out at 1%. In addition, on hNAMPT protein, the inhibition at 1 µM was found to be 100% and the IC50 was under 100 nM.
For `COc1ccc(F)c(-c2nc3cc(C(=O)NCCCc4ncc[nH]4)ccc3nc2-c2ccc(F)cc2)c1` [Compound I-481, 3-(2-fluoro-5-methoxyphenyl)-2-(4-fluorophenyl)-N-[3-(1H-imidazol-2-yl)propyl]quinoxaline-6-carboxamide] the same measures were 2%, 98% and under 100 nM.
For `CC(C)Oc1nc2ccc(C(=O)NCCCc3c[nH]cn3)cc2nc1-c1ccc(F)cc1` [Compound I-482, 3-(4-Fluorophenyl)-N-[3-(1H-imidazol-4-yl)propyl]-2-isopropoxyquinoxaline-6-carboxamide] the same measures were 2%, 72% and 100 to 500 nM.
On the same counts, the results for `O=C(NCCCc1ncc[nH]1)c1ccc2nc(-c3ccc(Cl)s3)c(-c3ccc(F)cc3)nc2c1` [Compound I-483, 2-(5-chloro-2-thienyl)-3-(4-fluorophenyl)-N-[3-(1H-imidazol-2-yl)propyl]quinoxaline-6-carboxamide] are 2%, 77% and 100 to 500 nM.
As for `COc1cccc(-c2nc3cc(C(=O)NCCCc4ncc[nH]4)ccc3nc2-c2ccc(F)cc2)c1` [Compound I-484, 2-(4-fluorophenyl)-N-[3-(1H-imidazol-2-yl)propyl]-3-(3-methoxyphenyl)quinoxaline-6-carboxamide], in the assay with PC3 cells, the inhibition at 1.667 µM is 2%. Moreover, at hNAMPT protein, the inhibition at 1 µM came out at 99% and the IC50 was under 100 nM.
For `C[C@@H]1CN(c2nc3ccc(C(=O)NCCCc4ccc(N)nc4)cc3nc2-c2ccc(F)cc2)C[C@H](C)O1` [Compound I-485, N-[3-(6-aminopyridin-3-yl)propyl]-2-[cis-2,6-dimethylmorpholin-4-yl]-3-(4-fluorophenyl)quinoxaline-6-carboxamide] the same measures were 2%, 96% and under 100 nM.
On the same counts, the results for `Cc1ccc(-c2nc3cc(C(=O)NCCCc4ncc[nH]4)ccc3nc2-c2ccc(F)cc2)cn1` [Compound I-486, 2-(4-fluorophenyl)-N-[3-(1H-imidazol-2-yl)propyl]-3-(6-methylpyridin-3-yl)quinoxaline-6-carboxamide] are 2%, 78% and 100 to 500 nM.
On the same counts, the results for `O=C(NCc1ccc2nccn2c1)c1ccc2nc(-c3ccc(Cl)cc3)c(-c3ccc(Cl)cc3)nc2c1` [Compound I-487, 2,3-bis(4-chlorophenyl)-N-(imidazo[1,2-a]pyridin-6-ylmethyl)quinoxaline-6-carboxamide] are 1%, 70% and 100 to 500 nM.
Consider `COc1cc(-c2nc3cc(C(=O)NCCCc4ncc[nH]4)ccc3nc2-c2ccc(F)cc2)ccc1F` [Compound I-488, 3-(4-fluoro-3-methoxyphenyl)-2-(4-fluorophenyl)-N-[3-(1H-imidazol-2-yl)propyl]quinoxaline-6-carboxamide], for which, in the assay on PC3 cells, the inhibition at 1.667 µM came out at 2%. Besides, on hNAMPT protein, the inhibition at 1 µM was found to be 98% and the half-inhibitory concentration (IC50) was under 100 nM.
For `O=C(NCCCc1ncc[nH]1)c1ccc2nc(OCCc3ccccn3)c(-c3ccc(F)cc3)nc2c1` [Compound I-489, 3-(4-fluorophenyl)-N-[3-(1H-imidazol-2-yl)propyl]-2-[2-(pyridin-2-yl)ethoxy]quinoxaline-6-carboxamide] the same measures were 2%, over 99% and under 100 nM.
As to `O=C(NCCCc1ncc[nH]1)c1ccc2nc(OCC3CC3)c(-c3ccc(F)cc3)nc2c1` [Compound I-490, 2-(cyclopropylmethoxy)-3-(4-fluorophenyl)-N-[3-(1H-imidazol-2-yl)propyl]quinoxaline-6-carboxamide], the inhibition at 1.667 µM in the assay on PC3 cells stood at 2%. Also, on hNAMPT protein, the inhibition at 1 µM came to 95% and the IC50 was under 100 nM.
Take `CC(C)Oc1nc2cc(F)c(C(=O)NCCCc3ncc[nH]3)cc2nc1-c1ccc(F)cc1` [Compound I-491, N-(3-(1H-imidazol-2-yl)propyl)-7-fluoro-3-(4-fluorophenyl)-2-isopropoxyquinoxaline-6-carboxamide]: in the assay on PC3 cells, the inhibition at 1.667 µM came to 4%. For the same molecule, at hNAMPT protein, the inhibition at 1 µM was determined as 83% and the IC50 lay within 100 to 500 nM.
As for `COc1ccc(F)c(-c2nc3cc(C(=O)NCCCc4ncc[nH]4)ccc3nc2OC(C)C)c1` [Compound I-492, 3-(2-fluoro-5-methoxyphenyl)-N-[3-(1H-imidazol-2-yl)propyl]-2-isopropoxyquinoxaline-6-carboxamide], the inhibition at 1.667 µM in the assay with PC3 cells was 3%. Besides, on hNAMPT protein, the inhibition at 1 µM came to 94% and the IC50 is under 100 nM.
For `Cc1ccc(Cl)cc1-c1nc2cc(C(=O)NCCCc3ncc[nH]3)ccc2nc1-c1ccc(F)cc1` [Compound I-493, 3-(5-chloro-2-methylphenyl)-2-(4-fluorophenyl)-N-[3-(1H-imidazol-2-yl)propyl]quinoxaline-6-carboxamide] the same measures were 1%, 98% and under 100 nM.
On the same counts, the results for `Cc1ncsc1-c1nc2cc(C(=O)NCCCc3ncc[nH]3)ccc2nc1-c1ccc(F)cc1` [Compound I-494, 2-(4-fluorophenyl)-N-[3-(1H-imidazol-2-yl)propyl]-3-(4-methyl-1,3-thiazol-5-yl)quinoxaline-6-carboxamide] are 3%, over 99% and under 100 nM.
For `N#CCCOc1nc2ccc(C(=O)NCCCc3ncc[nH]3)cc2nc1-c1ccc(F)cc1` [Compound I-496, 2-(2-cyanoethoxy)-3-(4-fluorophenyl)-N-[3-(1H-imidazol-2-yl)propyl]quinoxaline-6-carboxamide] the same measures were over 99%, 70% and 100 to 500 nM.
Regarding `Cc1ccc(-c2nc3cc(C(=O)NCCCc4ncc[nH]4)ccc3nc2-c2ccc(F)cc2)cc1` [Compound I-497, 2-(4-fluorophenyl)-N-[3-(1H-imidazol-2-yl)propyl]-3-(4-methylphenyl)quinoxaline-6-carboxamide], in the assay with PC3 cells, the inhibition at 1.667 µM worked out at 2%. For the same molecule, on hNAMPT protein, the inhibition at 1 µM was determined as 80% and the IC50 is 100 to 500 nM.
For `O=C(NCCCc1ncc[nH]1)c1ccc2nc(OCc3cccc(Cl)c3)c(-c3ccc(F)cc3)nc2c1` [Compound I-498, 2-[(3-chlorobenzyl)oxy]-3-(4-fluorophenyl)-N-[3-(1H-imidazol-2-yl)propyl]quinoxaline-6-carboxamide] the same measures were 3%, 84% and under 100 nM.
For `O=C(NCCCc1ncc[nH]1)c1ccc2nc(-c3ccc(F)cc3)c(-c3ccc(Cl)s3)nc2c1` [Compound I-499, 3-(5-chloro-2-thienyl)-2-(4-fluorophenyl)-N-[3-(1H-imidazol-2-yl)propyl]quinoxaline-6-carboxamide] the same measures were 2%, 98% and under 100 nM.
In the case of `O=C(NCCCc1ncc[nH]1)c1ccc2nc(OCC3CCCC3)c(-c3ccc(F)cc3)nc2c1` [Compound I-500, 2-(cyclopentylmethoxy)-3-(4-fluorophenyl)-N-[3-(1H-imidazol-2-yl)propyl]quinoxaline-6-carboxamide], the inhibition at 1.667 µM in the assay on PC3 cells came to 3%. Besides, at hNAMPT protein, the inhibition at 1 µM stood at 93% and the IC50 was under 100 nM.
For `N#Cc1ccc(F)c(-c2nc3cc(C(=O)NCCCc4ncc[nH]4)ccc3nc2-c2ccc(F)cc2)c1` [Compound I-501, 3-(5-cyano-2-fluorophenyl)-2-(4-fluorophenyl)-N-[3-(1H-imidazol-2-yl)propyl]quinoxaline-6-carboxamide] the same measures were 2%, 99% and under 100 nM.
Regarding `O=C(NCCCc1ncc[nH]1)c1ccc2nc(-c3ccc(F)cc3)c(-c3ccc(F)c(Cl)c3)nc2c1` [Compound I-502, N-(3-(1H-imidazol-2-yl)propyl)-3-(3-chloro-4-fluorophenyl)-2-(4-fluorophenyl)quinoxaline-6-carboxamide], the inhibition at 1.667 µM in the assay on PC3 cells stood at 2%. On hNAMPT protein, the inhibition at 1 µM came out at 97% and the IC50 is under 100 nM.
For `Cc1cnn(-c2nc3ccc(C(=O)NCCCc4ncc[nH]4)cc3nc2-c2ccc(F)cc2)c1` [Compound I-503, 3-(4-fluorophenyl)-N-[3-(1H-imidazol-2-yl)propyl]-2-(4-methyl-1H-pyrazol-1-yl)quinoxaline-6-carboxamide] the same measures were 3%, 84% and 100 to 500 nM.
On the same counts, the results for `O=C(NCCCc1ncc[nH]1)c1ccc2nc(-c3ccc(F)cc3)c(-c3sccc3Cl)nc2c1` [Compound I-504, 3-(3-chloro-2-thienyl)-2-(4-fluorophenyl)-N-[3-(1H-imidazol-2-yl)propyl]quinoxaline-6-carboxamide] are 3%, 93% and under 100 nM.
